Reference: patent publication US20240287082A1, “NEW BENZODIAZEPINE DERIVATIVES AS GABA A GAMMA1 PAM” (Hoffmann-La Roche Inc., priority 2021, published 2024)
Read-outs that look alike come from different tables or passages of the source.

Columns and labels:
[1] = target: human GABAA α5β2γ1 receptor (Homo sapiens (Human), UniProt P31644+Q8N1C3); test: Radioligand binding assay, competition for [3H]RO7239181, γ1-containing GABAA subtype α5β2γ1
Method: The affinity of compounds at GABAA γ1 subunit-containing receptors was measured by competition for [^3H]RO7239181 (67.3 Ci/mmol; Roche) binding to membranes from HEK293F cells (ThermoFisher R^79007) expressing human (transiently transfected) receptors of composition α5β2γ1, α2β2γ1, α1β2γ1. For better protein expression of the α2 subunit-containing receptors, the 28 amino acid long signal peptide (Met1 to Ala28)of the human GABAA α2 subunit was substituted by the 31 amino acid long signal peptide (Met1 to Ser31) of human GABAA α5 subunit.
Harvested pellets from HEK293F cells expressing the different GABAA receptor subtypes were resuspended in Mannitol Buffer pH 7.2-7.4 (Mannitol 0.29M, Triethylamine 10 mM, Acetic acid 10 mM, EDTA 1 mM plus protease inhibitors (20 tablets Complete, Roche Diagnostics Cat. No. 05 056 489 001 per liter)), washed two times and then resuspended at 1:10 to 1:15 dilution in the same buffer. Cell disruption was performed by stirring the suspension in a Parr vessel #4637 at 435 psi for 15 minutes, and then the suspensions were centrifuged at 1000×g for 15 minutes at 4° C. (Beckman Avanti J-HC: rotor JS-4.2). The supernatant (S1) was transferred in a 21 Schott flask and the pellet (P1) was resuspended with Mannitol Buffer up to 175 ml. The resuspended pellet was transferred into a 250 ml Corning centrifugal beaker and centrifuged at 1500×g for 10 minutes at 4° C. (Beckman Avanti J-HC: rotor JS-4.2). The supernatant (S1) was then transferred in the 21 Schott flask and the pellet was discarded. The supernatants (S1) were centrifuged in 500 ml Beckman polypropylene centrifugal beaker at 15 000×g for 30 minutes at 4° C. (Beckman Avanti J-20 XP: rotor JLA-10.500). The pellet (P2) was resuspended with Mannitol Buffer 1:1 and frozen at −80° C. The supernatant (S2) was centrifuged in 100 ml Beckman polypropylene centrifugal tubes at 48000×g for 50 minutes at 4° C. (Beckman Avanti J-20 XP: rotor JA-18). The supernatant (S3) was discarded and the pellet (P3) was resuspended with 1:1 Mannitol Buffer. The P2 and P3 protein concentration was determined with the BIORAD Standard assay method with bovine serum albumin as standard and measured on the NANO-Drop 1000. The membrane suspension was aliquots (500 μl per tube) and stored at −80° C. until required.
Membrane homogenates were resuspended and polytronised (Polytron PT1200E Kinematica AG) in Potassium Phosphate 10 mM, KCl 100 mM binding buffer at pH 7.4 to a final assay concentration determined with a previous experiment.
Radioligand binding assays were carried out in a volume of 200 μL (96-well plates) which contained 100 μL of cell membranes, [3H]RO7239181 at a concentration of 1.5 nM (α5β2γ1) or 20-30 nM (α1β2γ1, α2β2γ1) and the test compound in the range of [0.3-1000]×10^−9 M. Nonspecific binding was defined by 10×10^−6 (α5β2γ1) and 30×10^−6 M RO7239181 and typically represented less than 5% (α5β2γ1) and less than 20% (α1β2γ1, α2β2γ1) of the total binding. Assays were incubated to equilibrium for 1 hour at 4° C. and then, membranes were filtered onto unifilter (96-well white microplate with bonded GF/C filters preincubated 20-50 minutes in 0.3% Polyethylenimine) with a Filtermate 196 harvester (Packard BioScience) and washed 4 times with cold Potassium Phosphate 10 mM pH 7.4, KCl 100 mM binding buffer. After anhydrousing, filter-retained radioactivity was detected by liquid scintillation counting. Ki values were calculated using Excel-Fit (Microsoft) and are the means of two determinations.

h-GABA-A α2β2γ1 = h-GABA-A α2β2γ1 (Homo sapiens (Human), UniProt P47869+Q8N1C3); test: Two-electrode voltage clamp electrophysiology in Xenopus oocytes expressing GABAA receptors, modulation of GABA EC20 current; type: cell-based; conditions: for Efficacy (GABA) %: % modulation of GABA EC20 = 100*(Fold increase−1), compound at 30-fold Ki α2β2γ1; for Fold increase h-GABA-A α2β2γ1 oocyte @ 30-fold Ki: Xenopus oocytes, GABA EC20, test compound at approx. 30-fold its Ki α2β2γ1
Method: Xenopus laevis oocytes at maturation stages V-VI were used for the expression of cloned mRNA encoding GABAA receptor subunits. Oocytes ready for RNA micro-injection were bought from Ecocyte, Castrop-Rauxel, Germany and stored in modified Barth's medium (composition in mM: NaCl 88, KCl 1, NaHCO3 2.4, HEPES 10, MgSO4 0.82, CaNO3 0.33, CaCl2 0.33, pH=7.5) at 20° C. until the experiment.
Oocytes were plated in 96-well plates for microinjection using the Roboinject automated instrument (MultiChannelSystems, Reutlingen, Germany). Approximately 50 nL of an aqueous solution containing the RNA transcripts for the subunits of the desired GABAA receptor subtype was injected into each oocyte. […] Oocytes were kept in modified Barth's medium (composition in mM: NaCl 88, KCl 1, NaHCO3 […], HEPES 10, MgSO4 0.82, CaNO3 0.33, CaCl2 0.33, pH=7.5) at 20° C. until the experiment.
Electrophysiological experiments were performed using the Roboocyte instrument (MultiChannelSystems, Reutlingen, Germany) on days 3 to 5 after the micro-injection of mRNA. During the experiment the oocytes were constantly superfused by a solution containing (in mM) NaCl 90, KCl 1, HEPES 5, MgCl2 1, CaCl2 1 (pH 7.4). Oocytes were impaled by two glass microelectrodes (resistance: 0.5-0.8 MΩ) which were filled with a solution containing KCl 1M+K-acetate 1.5 M and voltage-clamped to −80 mV. The recordings were performed at room temperature using the Roboocyte two-electrode voltage clamp system (Multichannelsystem). After an initial equilibration period of 1.5 min GABA was added for 1.5 min at a concentration evoking approximately 20% of a maximal current response (EC20). After another rest interval of 2.5 min GABA was again added evoking a response of similar amplitude and shape. […] Current traces were recorded at a digitization rate of 10 Hz during and shortly before and after the GABA application.
Each compound and concentration was tested on at least 3 oocytes. Different oocytes were used for different compound concentrations.
For the analysis, the digitized current traces of the first and second GABA response were superimposed and, if necessary, rescaled to equal maximal amplitudes. The ratio between the two responses during the time interval of test compound application was calculated point by point. The extremum of the resulting “ratio trace” was taken as the efficacy (“Fold increase”) of the compound expressed as “% modulation of GABA EC20” (100*(Fold increase−1)).

[2] = membranes of HEK293F cells, [3H]RO7239181 1.5 nM, mean of two determinations, read-out: Ki h-GABAA α5β2γ1

Structure (SMILES) | Ki [1, 2] [nM] | Efficacy (GABA) % (h-GABA-A α2β2γ1) [%] | Fold increase h-GABA-A α2β2γ1 oocyte @ 30-fold Ki (h-GABA-A α2β2γ1) | Ki [1] [nM]
CCO/C=C/c1cn2c(nc1=O)[C@H](C)N=C(c1c(F)cccc1F)c1c-2ccc(Cl)c1Cl [Example 19, (5S)-8,9-dichloro-7-(2,6-difluorophenyl)-2-[(E)-2-ethoxyvinyl]-5-methyl-5H-pyrimido[1,2-a][1,4]benzodiazepin-3-one] | 4.9 | 104 | 2.04 | –
CCOCCc1cn2c(nc1=O)CN=C(c1c(F)cccc1F)c1c-2ccc(C(F)(F)F)c1Cl [Example 26, 8-chloro-7-(2,6-difluorophenyl)-2-(2-ethoxyethyl)-9-(trifluoromethyl)-5H-pyrimido[1,2-a][1,4]benzodiazepin-3-one] | 21.6 | 113 | 2.13 | –
CCO/C=C/c1cn2c(nc1=O)[C@H](C)N=C(c1c(F)cccc1F)c1c-2ccc(C(F)(F)F)c1Cl [Example 18, (5S)-8-chloro-7-(2,6-difluorophenyl)-2-[(E)-2-ethoxyvinyl]-5-methyl-9-(trifluoromethyl)-5H-pyrimido[1,2-a][1,4]benzodiazepin-3-one] | 9.7 | 89 | 1.89 | –
C[C@@H]1N=C(c2c(F)cccc2F)c2c(ccc(Cl)c2Cl)-n2ccc(=O)nc21 [Example 4, (5S)-8,9-dichloro-7-(2,6-difluorophenyl)-5-methyl-5H-pyrimido[1,2-a][1,4]benzodiazepin-3-one] | – | 105 | 2.05 | 1.5
CCOCCc1cn2c(nc1=O)[C@H](C)N=C(c1c(F)cccc1F)c1c-2ccc(C(F)(F)F)c1Cl [Example 20, (5S)-8-chloro-7-(2,6-difluorophenyl)-2-(2-ethoxyethyl)-5-methyl-9-(trifluoromethyl)-5H-pyrimido[1,2-a][1,4]benzodiazepin-3-one] | 6.6 | 113 | 2.13 | –
C[C@@H]1N=C(c2c(F)cccc2F)c2c(ccc(C(F)(F)F)c2Cl)-n2cc(C(=O)NC3CC3)c(=O)nc21 [Example 28, (5S)-8-chloro-N-cyclopropyl-7-(2,6-difluorophenyl)-5-methyl-3-oxo-9-(trifluoromethyl)-5H-pyrimido[1,2-a][1,4]benzodiazepine-2-carboxamide] | 7.4 | 35 | 1.35 | –
Cc1cn2c(nc1=O)[C@H](C)N=C(c1c(F)cccc1F)c1c-2ccc(C(F)(F)F)c1Cl [Example 9, (5S)-8-chloro-7-(2,6-difluorophenyl)-2,5-dimethyl-9-(trifluoromethyl)-5H-pyrimido[1,2-a][1,4]benzodiazepin-3-one] | – | 99 | 1.99 | 3.1
CCc1cn2c(nc1=O)[C@H](C)N=C(c1c(F)cccc1F)c1c-2ccc(C(F)(F)F)c1Cl [Example 11, (5S)-8-chloro-7-(2,6-difluorophenyl)-2-ethyl-5-methyl-9-(trifluoromethyl)-5H-pyrimido[1,2-a][1,4]benzodiazepin-3-one] | – | 70 | 1.7 | 4.1
CCOCCc1cn2c(nc1=O)[C@H](C)N=C(c1c(F)cccc1F)c1c-2ccc(Cl)c1Cl [Example 21, (5S)-8,9-dichloro-7-(2,6-difluorophenyl)-2-(2-ethoxyethyl)-5-methyl-5H-pyrimido[1,2-a][1,4]benzodiazepin-3-one] | 3.4 | 113 | 2.13 | –
CCO/C=C/c1cn2c(nc1=O)CN=C(c1c(F)cccc1F)c1c-2ccc(C(F)(F)F)c1Cl [Example 25, 8-chloro-7-(2,6-difluorophenyl)-2-[(E)-2-ethoxyvinyl]-9-(trifluoromethyl)-5H-pyrimido[1,2-a][1,4]benzodiazepin-3-one] | 9.4 | 81 | 1.81 | –
CCO/C=C/c1cn2c(nc1=O)CN=C(c1c(F)cccc1F)c1c-2ccc(Cl)c1Cl [Example 22, 8,9-dichloro-7-(2,6-difluorophenyl)-2-[(E)-2-ethoxyvinyl]-5H-pyrimido[1,2-a][1,4]benzodiazepin-3-one] | 2.1 | 113 | 2.13 | –
O=c1ccn2c(n1)CN=C(c1c(F)cccc1F)c1c-2ccc(Cl)c1Cl [Example 2, 8,9-dichloro-7-(2,6-difluorophenyl)-5H-pyrimido[1,2-a][1,4]benzodiazepin-3-one] | – | 88 | 1.88 | 1.1
O=c1ccn2c(n1)CN=C(c1ncccc1F)c1c-2ccc(Cl)c1Cl [Example 3, 8,9-dichloro-7-(3-fluoro-2-pyridyl)-5H-pyrimido[1,2-a][1,4]benzodiazepin-3-one] | – | 192 | 2.92 | 10.3
C[C@@H]1N=C(c2c(F)cccc2F)c2c(ccc(C(F)(F)F)c2Cl)-n2ccc(=O)nc21 [Example 10, (5S)-8-chloro-7-(2,6-difluorophenyl)-5-methyl-9-(trifluoromethyl)-5H-pyrimido[1,2-a][1,4]benzodiazepin-3-one] | – | 164 | 2.64 | 3
CCOCCc1cn2c(nc1=O)CN=C(c1c(F)cccc1F)c1c-2ccc(Cl)c1Cl [Example 24, 8,9-dichloro-7-(2,6-difluorophenyl)-2-(2-ethoxyethyl)-5H-pyrimido[1,2-a][1,4]benzodiazepin-3-one] | 3 | 120 | 2.20 | –
